The source of these data is patent US10814002B2, “Patch and method for producing the same” (HISAMITSU PHARMACEUTICAL CO., INC., priority 2012, dated 2020).

Where a name gives a salt, the structure may show the parent alone.

A short description of this series: Oral (sublingual) administration of 5 mg asenapine maleate to healthy adult men. It is filed as in vivo, human. The note with it: 5 mg asenapine maleate sublingual, healthy adult men (18). How it is done: The N-desmethyl asenapine tends to cause adverse effects such as adverse effects on the cardiovascular system in comparison with asenapine. For example, in a case where 5 mg of asenapine maleate is orally administered (sublingual administration), the area under plasma concentration-time curve of the free asenapine for a period between 10 minutes and 72 hours (AUC0.17.72) can be 25,000 to 38,000 pg·hr/mL. In this case, N-desmethyl asenapine has an AUC0.17.72 of 10,000 to 17,000 pg·hr/mL, which is 40% or more of the […] of the free asenapine. In contrast, when approximately the same amount (4.8 mg) of asenapine is administrated using the patch of the present invention comprising the isopropyl palmitate in the adhesive agent layer, this makes it possible to sufficiently suppress the AUC of the asenapine metabolite while the free asenapine has an AUC equivalent to that in the case of the oral administration.
Furthermore, in a case where the patch obtained in Example 2 was administrated, the incidence proportion of adverse effects on the cardiovascular system in the AUC measurement test was 6%. […]

For `CN1C[C@@H]2c3ccccc3Oc3ccc(Cl)cc3[C@H]2C1` (relative stereo) [asenapine maleate, trans-5-chloro-2-methyl-2,3,3a,12b-tetrahydro-1H-diben z[2,3:6,7]oxepino[4,5-c]pyrrole], the “incidence proportion of adverse effects on the cardiovascular system” value is reported as 39%. Further, the “AUC0.17.72 of the free asenapine (average value)” value (plasma, 10 minutes to 72 hours) is reported as 32,074 pg·hr/mL.
